This is an account of results in US10428051B2 (priority 2015, dated 2019).

Chain of human σ1 receptor (Q99720 whole entry): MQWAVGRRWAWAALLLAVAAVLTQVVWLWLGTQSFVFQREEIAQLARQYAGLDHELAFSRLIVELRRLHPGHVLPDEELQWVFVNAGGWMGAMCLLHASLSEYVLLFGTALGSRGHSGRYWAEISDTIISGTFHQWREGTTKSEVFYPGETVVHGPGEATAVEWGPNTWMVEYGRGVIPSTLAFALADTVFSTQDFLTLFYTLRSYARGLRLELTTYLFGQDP

The assay addresses human σ1 receptor (Homo sapiens, UniProt Q99720). The assay is described as follows: biochemical. Also noted: μ and σ1 dual (binding to the σ1 receptor and the μ-opioid receptor expressed as Ki): key to the marks not given beside the values. The format is binding.
Regarding `CCC(=O)N(CC1(N2CCN(Cc3ccc(NC(C)=O)cc3)CC2)CC1)c1ccccc1` [Example 115, N-((1-(4-(4-acetamidobenzyl)piperazin-1-yl)cyclopropyl)methyl)-N-phenylpropionamide], the “μ and σ1 dual (binding to the σ1 receptor and the μ-opioid receptor expressed as Ki)” value (“μ and σ1 dual” below) is given as “++”.
Same read-out and setting: under `CCC(=O)N(CC(C)(C)N1CCN(CCc2ncccc2F)CC1)c1ccccc1F` [Example 71, N-(2-fluorophenyl)-N-(2-(4-(2-(3-fluoropyridin-2-yl)ethyl)piperazin-1-yl)-2-methylpropyl)propionamide] stands “++”.
Regarding `CCC(=O)N(CC1(N2CCN(Cc3ccccc3)CC2)CC1)c1nccs1` [Example 92, N-((1-(4-benzylpiperazin-1-yl)cyclopropyl)methyl)-N-(thiazol-2-yl)propionamide], the Ki was under 500 nM.
Turning to `CCC(=O)N(CC1(N2CCN(Cc3ccccc3)CC2)CCOC(C)(C)C1)c1ncccc1C(F)(F)F` (stereo not drawn) [Example 67, N-((4-(4-benzylpiperazin-1-yl)-2,2-dimethyltetrahydro-2H-pyran-4-yl)methyl)-N-(3-(trifluoromethyl)pyridin-2-yl)propionamide], the Ki is under 500 nM.
As for `CCC(=O)N(CC(C)(C)N1CCN(CC(C)C)CC1)c1ncccc1F` [Example 74, N-(3-fluoropyridin-2-yl)-N-(2-(4-isobutylpiperazin-1-yl)-2-methylpropyl)propionamide], the “μ and σ1 dual” value was “++”.
On the same count and under the same terms, under `CCC(=O)N(CC(C)(C)N1CCN(CCOC(C)C)CC1)c1ncccc1F` [Example 73, N-(3-fluoropyridin-2-yl)-N-(2-(4-(2-isopropoxyethyl)piperazin-1-yl)-2-methylpropyl)propionamide] stands “++”.
With `CCC(=O)N(CC1(N2CCN(CCOC(C)C)CC2)CCOC(C)(C)C1)c1ncccc1F` (stereo not drawn) [Example 167, N-(3-fluoropyridin-2-yl)-N-((4-(4-(2-isopropoxyethyl)piperazin-1-yl)-2,2-dimethyltetrahydro-2H-pyran-4-yl)methyl)propionamide], the Ki was under 500 nM.
Still for that read-out and setting: under `CCC(=O)N(CC1(N2CCN(Cc3ccccc3)CC2)CCOCC1)c1ccccc1Cl` [Example 2, N-((4-(4-benzylpiperazin-1-yl)tetrahydro-2H-pyran-4-yl)methyl)-N-(2-chlorophenyl)propionamide] stands under 100 nM.
As to `CCC(=O)N(CC1(N2CCN(Cc3ccc(C(F)(F)F)nc3)CC2)CCOCC1)c1ccccc1` [Example 103, N-phenyl-N-((4-(4-((6-(trifluoromethyl)pyridin-3-yl)methyl)piperazin-1-yl)tetrahydro-2H-pyran-4-yl)methyl)propionamide], the inhibitory constant (Ki) is over 500 nM.
Compound `CCC(=O)N(CC1(N2CCN(Cc3ccc(F)c(F)c3)CC2)CCOCC1)c1ccccc1` [Example 108, N-((4-(4-(3,4-difluorobenzyl)piperazin-1-yl)tetrahydro-2H-pyran-4-yl)methyl)-N-phenylpropionamide] gave a Ki of under 500 nM.
The same measure, in the same setting: the same measure for `CCC(=O)N(CC1(N2CCN(Cc3ccccc3)CC2)CCOCC1)c1cncc(F)c1` [Example 10, N-((4-(4-benzylpiperazin-1-yl)tetrahydro-2H-pyran-4-yl)methyl)-N-(5-fluoropyridin-3-yl)propionamide]: under 500 nM; for `CCC(=O)N(CC1(N2CCN(Cc3ccccc3)CC2)CCOCC1)c1cc(C(F)(F)F)ccn1` [Example 8, N-((4-(4-benzylpiperazin-1-yl)tetrahydro-2H-pyran-4-yl)methyl)-N-(4-(trifluoromethyl)pyridin-2-yl)propionamide]: under 500 nM.
As to `CCC(=O)N(CC1(N2CCN(CCc3ncccc3F)CC2)CCOCC1)c1cccc(C(F)(F)F)n1` [Example 192, N-((4-(4-(2-(3-Fluoropyridin-2-yl)ethyl)piperazin-1-yl)tetrahydro-2H-pyran-4-yl)methyl)-N-(6-(trifluoromethyl)pyridin-2-yl)propionamide], the “μ and σ1 dual” value was “++”.
Same read-out and setting: the same measure for `CCC(=O)N(CC1(N2CCN(Cc3ccccc3)CC2)CCOCC1)c1ccc(C(F)(F)F)cn1` [Example 7, N-((4-(4-benzylpiperazin-1-yl)tetrahydro-2H-pyran-4-yl)methyl)-N-(5-(trifluoromethyl)pyridin-2-yl)propionamide]: “++”.
As for `CCC(=O)N(CC1(N2CCN(Cc3ccccc3)CC2)CC1)c1cccc(C#N)c1` [Example 96, N-((1-(4-benzylpiperazin-1-yl)cyclopropyl)methyl)-N-(3-cyanophenyl)propionamide], the Ki is under 500 nM.
For `CCC(=O)N(CC1(N2CCN(Cc3ccccc3)CC2)CCOCC1)c1ncccc1C#N` [Example 58, N-((4-(4-benzylpiperazin-1-yl)tetrahydro-2H-pyran-4-yl)methyl)-N-(3-cyanopyridin-2-yl)propionamide], the “μ and σ1 dual” value is on record as “++”.
With `CCC(=O)N(CC1(N2CCN(Cc3ccccc3)CC2)CCOCC1)c1ccncc1` [Example 12, N-((4-(4-benzylpiperazin-1-yl)tetrahydro-2H-pyran-4-yl)methyl)-N-(pyridin-4-yl)propionamide], the Ki was over 500 nM.
In turn, `CCC(=O)N(CC1(N2CCN(Cc3cccc(F)c3)CC2)CCOCC1)c1ccccc1` [Example 100, N-((4-(4-(3-fluorobenzyl)piperazin-1-yl)tetrahydro-2H-pyran-4-yl)methyl)-N-phenylpropionamide] yielded a Ki of under 100 nM.
Regarding `CCC(=O)N(CC1(N2CCN(Cc3ccccc3)CC2)CCOCC1)c1ccc(C(F)(F)F)nc1` [Example 11, N-((4-(4-benzylpiperazin-1-yl)tetrahydro-2H-pyran-4-yl)methyl)-N-(6-(trifluoromethyl)pyridin-3-yl)propionamide], the “μ and σ1 dual” value is “++”.
Compound `CCC(=O)N(CC1(N2CCN(Cc3ccc(OC)nc3)CC2)CCOCC1)c1ccccc1` [Example 109, N-((4-(4-((6-methoxypyridin-3-yl)methyl)piperazin-1-yl)tetrahydro-2H-pyran-4-yl)methyl)-N-phenylpropionamide] gave a Ki of under 500 nM.
Take `O=C(c1cccs1)N(CC1(N2CCN(Cc3ccccc3)CC2)CC1)c1ccccn1` [Example 47, N-((1-(4-benzylpiperazin-1-yl)cyclopropyl)methyl)-N-(pyridin-2-yl)thiophene-2-carboxamide]: the “μ and σ1 dual” value is reported as “++”.
In turn, `CCC(=O)N(CC1(N2CCN(CCC(C)C)CC2)CCOCC1)c1cccc(C#N)n1` [Example 86, N-(6-cyanopyridin-2-yl)-N-((4-(4-isopentylpiperazin-1-yl)tetrahydro-2H-pyran-4-yl)methyl)propionamide] displayed a Ki of under 500 nM.
On the same count and under the same terms, under `CCC(=O)N(CC1(N2CCN(Cc3ccccc3F)CC2)CCOCC1)c1ccccc1` [Example 104, N-((4-(4-(2-fluorobenzyl)piperazin-1-yl)tetrahydro-2H-pyran-4-yl)methyl)-N-phenylpropionamide] stands under 500 nM; under `CCC(=O)N(CC1(N2CCN(Cc3ccccc3)CC2)CC1)c1cccnc1C(F)(F)F` [Example 76, N-((1-(4-benzylpiperazin-1-yl)cyclopropyl)methyl)-N-(2-(trifluoromethyl)pyridin-3-yl)propionamide], under 500 nM.
For the compound `CCC(=O)N(CC1(N2CCN(Cc3ccccc3)CC2)CCOC(C)(C)C1)c1cccc(C#N)n1` (stereo not drawn) [Example 65, N-((4-(4-benzylpiperazin-1-yl)-2,2-dimethyltetrahydro-2H-pyran-4-yl)methyl)-N-(6-cyanopyridin-2-yl)propionamide], the Ki was under 500 nM.
Same read-out and setting: under `CCC(=O)N(CC1(N2CCN(Cc3ncccc3F)CC2)CC1)c1ccccc1` [Example 120, N-((1-(4-((3-fluoropyridin-2-yl)methyl)piperazin-1-yl)cyclopropyl)methyl)-N-phenylpropionamide] stands over 500 nM.
For `CCC(=O)N(CC1(N2CCN(CCOC(C)C)CC2)CCOC2(CCCC2)C1)c1cccc(C(F)(F)F)n1` (stereo not drawn) [Example 174, N-((9-(4-(2-isopropoxyethyl)piperazin-1-yl)-6-oxaspiro[4.5]decan-9-yl)methyl)-N-(6-(trifluoromethyl)pyridin-2-yl)propionamide], the Ki is under 500 nM.
Same read-out and setting: the same measure for `CCC(=O)N(CC1(N2CCN(CC(C)C)CC2)CCOCC1)c1ccccn1` [Example 151, N-((4-(4-isobutylpiperazin-1-yl)tetrahydro-2H-pyran-4-yl)methyl)-N-(pyridin-2-yl)propionamide]: over 500 nM; for `CCC(=O)N(CC1(N2CCN(CCC(C)C)CC2)CC1)c1cccc(C(F)(F)F)n1` [Example 124, N-((1-(4-isopentylpiperazin-1-yl)cyclopropyl)methyl)-N-(6-(trifluoromethyl)pyridin-2-yl)propionamide]: under 100 nM.
As to `CCC(=O)N(CC1(N2CCN(Cc3ccc(C(=O)NC)cc3)CC2)CC1)c1ccccc1` [Example 131, N-methyl-4-((4-(1-((N-phenylpropionamido)methyl)cyclopropyl)piperazin-1-yl)methyl)benzamide], the “μ and σ1 dual” value is given as “++”.

As usually defined, the Ki is the dissociation constant of the complex between target and ligand, obtained from inhibition or displacement.
